Assay results taken from ChEMBL document CHEMBL2346657, “Synthesis of novel 2-amino-4-(5'-substituted 2'-phenyl-1H-indol-3'-yl)-6-aryl-4H-pyran-3-carbonitrile derivatives as antimicrobial and antioxidant agents” (2013).
The source made the active and inactive calls. How the calls were made is not given here.

Legend:
Format in all cases: functional
Aspergillus terreus [1] = assay: Antimicrobial activity against Aspergillus terreus MTCC 1782 at 750 ug/ml after 72 hrs by cup plate method; conditions: MTCC 1782, 72 h, read-out: IZ
[2] = Antioxidant activity assessed as metal chelating activity by measuring inhibition of ferrozine-Fe2+ complex formation at 25 to 100 ug/ml
Staphylococcus aureus [3] = assay: Antimicrobial activity against Staphylococcus aureus ATCC 29513 at 500 ug/ml after 24 hrs by cup plate method; conditions: ATCC 29513, 24 h, read-out: IZ
Aspergillus terreus [4] = assay: Antimicrobial activity against Aspergillus terreus MTCC 1782 at 1000 ug/ml after 72 hrs by cup plate method; conditions: MTCC 1782, 72 h, read-out: IZ
Klebsiella pneumoniae [5] = assay: Antimicrobial activity against Klebsiella pneumoniae NCTC 13368 at 1000 ug/ml after 24 hrs by cup plate method; conditions: NCTC 13368, 24 h, read-out: IZ
Aspergillus flavus [6] = assay: Antimicrobial activity against Aspergillus flavus MTCC 1973 at 1000 ug/ml after 72 hrs by cup plate method; conditions: MTCC 1973, 72 h, read-out: IZ
Aspergillus terreus [7] = assay: Antimicrobial activity against Aspergillus terreus MTCC 1782 at 500 ug/ml after 72 hrs by cup plate method; conditions: MTCC 1782, 72 h, read-out: IZ
Klebsiella pneumoniae [8] = assay: Antimicrobial activity against Klebsiella pneumoniae NCTC 13368 at 750 ug/ml after 24 hrs by cup plate method; conditions: NCTC 13368, 24 h, read-out: IZ
Escherichia coli [9] = assay: Antimicrobial activity against Escherichia coli MTCC 723 at 750 ug/ml after 24 hrs by cup plate method; conditions: MTCC 723, 24 h, read-out: IZ
Aspergillus niger [10] = assay: Antimicrobial activity against Aspergillus niger MTCC 281 at 750 ug/ml after 72 hrs by cup plate method; conditions: MTCC 281, 72 h, read-out: IZ
Aspergillus oryzae [11] = assay: Antimicrobial activity against Aspergillus oryzae MTCC 3567 at 1000 ug/ml after 72 hrs by cup plate method; conditions: MTCC 3567, 72 h, read-out: IZ
Aspergillus oryzae [12] = assay: Antimicrobial activity against Aspergillus oryzae MTCC 3567 at 750 ug/ml after 72 hrs by cup plate method; conditions: MTCC 3567, 72 h, read-out: IZ
Escherichia coli [13] = assay: Antimicrobial activity against Escherichia coli MTCC 723 at 500 ug/ml after 24 hrs by cup plate method; conditions: MTCC 723, 24 h, read-out: IZ
Aspergillus niger [14] = assay: Antimicrobial activity against Aspergillus niger MTCC 281 at 500 ug/ml after 72 hrs by cup plate method; conditions: MTCC 281, 72 h, read-out: IZ
Aspergillus flavus [15] = assay: Antimicrobial activity against Aspergillus flavus MTCC 1973 at 750 ug/ml after 72 hrs by cup plate method; conditions: MTCC 1973, 72 h, read-out: IZ
Pseudomonas aeruginosa [16] = assay: Antimicrobial activity against Pseudomonas aeruginosa MTCC 1688 at 1000 ug/ml after 24 hrs by cup plate method; conditions: MTCC 1688, 24 h, read-out: IZ
Staphylococcus aureus [17] = assay: Antimicrobial activity against Staphylococcus aureus ATCC 29513 at 1000 ug/ml after 24 hrs by cup plate method; conditions: ATCC 29513, 24 h, read-out: IZ
Escherichia coli [18] = assay: Antimicrobial activity against Escherichia coli MTCC 723 at 1000 ug/ml after 24 hrs by cup plate method; conditions: MTCC 723, 24 h, read-out: IZ
Staphylococcus aureus [19] = assay: Antimicrobial activity against Staphylococcus aureus ATCC 29513 at 750 ug/ml after 24 hrs by cup plate method; conditions: ATCC 29513, 24 h, read-out: IZ
Aspergillus niger [20] = assay: Antimicrobial activity against Aspergillus niger MTCC 281 at 1000 ug/ml after 72 hrs by cup plate method; conditions: MTCC 281, 72 h, read-out: IZ
Aspergillus flavus [21] = assay: Antimicrobial activity against Aspergillus flavus MTCC 1973 at 500 ug/ml after 72 hrs by cup plate method; conditions: MTCC 1973, 72 h, read-out: IZ
Pseudomonas aeruginosa [22] = assay: Antimicrobial activity against Pseudomonas aeruginosa MTCC 1688 at 750 ug/ml after 24 hrs by cup plate method; conditions: MTCC 1688, 24 h, read-out: IZ
Klebsiella pneumoniae [23] = assay: Antimicrobial activity against Klebsiella pneumoniae NCTC 13368 at 500 ug/ml after 24 hrs by cup plate method; conditions: NCTC 13368, 24 h, read-out: IZ
Pseudomonas aeruginosa [24] = assay: Antimicrobial activity against Pseudomonas aeruginosa MTCC 1688 at 500 ug/ml after 24 hrs by cup plate method; conditions: MTCC 1688, 24 h, read-out: IZ
Aspergillus oryzae [25] = assay: Antimicrobial activity against Aspergillus oryzae MTCC 3567 at 500 ug/ml after 72 hrs by cup plate method; conditions: MTCC 3567, 72 h, read-out: IZ

Compound	zone of inhibition at 750 µg/mL (Aspergillus terreus [1]) [mm]	Activity [2]	zone of inhibition at 500 µg/mL (Staphylococcus aureus [3]) [mm]	zone of inhibition at 1000 µg/mL (Aspergillus terreus [4]) [mm]	zone of inhibition at 1000 µg/mL (Klebsiella pneumoniae [5]) [mm]	zone of inhibition at 1000 µg/mL (Aspergillus flavus [6]) [mm]	zone of inhibition at 500 µg/mL (Aspergillus terreus [7]) [mm]	zone of inhibition at 750 µg/mL (Klebsiella pneumoniae [8]) [mm]	zone of inhibition at 750 µg/mL (Escherichia coli [9]) [mm]	zone of inhibition at 750 µg/mL (Aspergillus niger [10]) [mm]	zone of inhibition at 1000 µg/mL (Aspergillus oryzae [11]) [mm]	zone of inhibition at 750 µg/mL (Aspergillus oryzae [12]) [mm]	zone of inhibition at 500 µg/mL (Escherichia coli [13]) [mm]	zone of inhibition at 500 µg/mL (Aspergillus niger [14]) [mm]	zone of inhibition at 750 µg/mL (Aspergillus flavus [15]) [mm]	zone of inhibition at 1000 µg/mL (Pseudomonas aeruginosa [16]) [mm]	zone of inhibition at 1000 µg/mL (Staphylococcus aureus [17]) [mm]	zone of inhibition at 1000 µg/mL (Escherichia coli [18]) [mm]	zone of inhibition at 750 µg/mL (Staphylococcus aureus [19]) [mm]	zone of inhibition at 1000 µg/mL (Aspergillus niger [20]) [mm]	further results
Cc1ccc(C2=CC(c3c(-c4ccccc4)[nH]c4ccc(C)cc34)c3c(N)nc(=S)[nH]c3O2)cc1 (stereo not given)	5	Active	0	5	5	9	5	5	4	0	5	5	5	0	8	5	0	4	0	0	zone of inhibition at 500 µg/mL (Aspergillus flavus [21]): 9 mm; zone of inhibition at 750 µg/mL (Pseudomonas aeruginosa [22]): 5 mm; zone of inhibition at 500 µg/mL (Klebsiella pneumoniae [23]): 6 mm; zone of inhibition at 500 µg/mL (Pseudomonas aeruginosa [24]): 6 mm; zone of inhibition at 500 µg/mL (Aspergillus oryzae [25]): 5 mm
Cc1ccc2[nH]c(-c3ccccc3)c(C3C=C(c4ccc(Cl)cc4)Oc4[nH]c(=O)nc(N)c43)c2c1 (stereo not given)	6	Active	5	5	3	4	7	3	8	4	8	8	10	5	5	0	7	3	5	6	zone of inhibition at 500 µg/mL (Aspergillus flavus [21]): 8 mm; zone of inhibition at 750 µg/mL (Pseudomonas aeruginosa [22]): 0 mm; zone of inhibition at 500 µg/mL (Klebsiella pneumoniae [23]): 4 mm; zone of inhibition at 500 µg/mL (Pseudomonas aeruginosa [24]): 0 mm; zone of inhibition at 500 µg/mL (Aspergillus oryzae [25]): 8 mm
Cc1ccc(C2=CC(c3c(-c4ccccc4)[nH]c4ccc(C)cc34)c3c(nc[nH]c3=O)O2)cc1 (stereo not given)	9	Active	2	9	8	9	9	8	2	3	3	3	2	3	9	8	2	2	2	3	zone of inhibition at 500 µg/mL (Aspergillus flavus [21]): 10 mm; zone of inhibition at 750 µg/mL (Pseudomonas aeruginosa [22]): 8 mm; zone of inhibition at 500 µg/mL (Klebsiella pneumoniae [23]): 8 mm; zone of inhibition at 500 µg/mL (Pseudomonas aeruginosa [24]): 8 mm; zone of inhibition at 500 µg/mL (Aspergillus oryzae [25]): 3 mm
Nc1nc(=S)[nH]c2c1C(c1c(-c3ccccc3)[nH]c3ccccc13)C=C(c1ccc(Cl)cc1)O2 (stereo not given)	5	Active	10	5	5	5	8	8	10	3	8	8	10	3	12	10	11	10	10	5	zone of inhibition at 500 µg/mL (Aspergillus flavus [21]): 12 mm; zone of inhibition at 750 µg/mL (Pseudomonas aeruginosa [22]): 10 mm; zone of inhibition at 500 µg/mL (Klebsiella pneumoniae [23]): 8 mm; zone of inhibition at 500 µg/mL (Pseudomonas aeruginosa [24]): 10 mm; zone of inhibition at 500 µg/mL (Aspergillus oryzae [25]): 9 mm
Cc1ccc(C2=CC(c3c(-c4ccccc4)[nH]c4ccc(Cl)cc34)C(C#N)=C(N)O2)cc1 (stereo not given)	3	Active	8	3	10	5	5	10	10	3	2	8	10	4	5	3	6	10	5	3	zone of inhibition at 500 µg/mL (Aspergillus flavus [21]): 5 mm; zone of inhibition at 750 µg/mL (Pseudomonas aeruginosa [22]): 6 mm; zone of inhibition at 500 µg/mL (Klebsiella pneumoniae [23]): 10 mm; zone of inhibition at 500 µg/mL (Pseudomonas aeruginosa [24]): 6 mm; zone of inhibition at 500 µg/mL (Aspergillus oryzae [25]): 8 mm
Cc1ccc(C2=CC(c3c(-c4ccccc4)[nH]c4ccccc34)c3c(nc4oc(=O)c(C#N)c(N)c4c3N)O2)cc1 (stereo not given)	5	Active	8	3	10	0	10	11	8	2	6	6	9	2	0	9	3	8	5	8	zone of inhibition at 500 µg/mL (Aspergillus flavus [21]): 0 mm; zone of inhibition at 750 µg/mL (Pseudomonas aeruginosa [22]): 5 mm; zone of inhibition at 500 µg/mL (Klebsiella pneumoniae [23]): 12 mm; zone of inhibition at 500 µg/mL (Pseudomonas aeruginosa [24]): 5 mm; zone of inhibition at 500 µg/mL (Aspergillus oryzae [25]): 6 mm
Cc1ccc2[nH]c(-c3ccccc3)c(C3C=C(c4ccc(Cl)cc4)Oc4nc[nH]c(=O)c43)c2c1 (stereo not given)	6	Active	10	6	5	5	6	5	8	10	8	8	8	10	5	4	10	8	10	11	zone of inhibition at 500 µg/mL (Aspergillus flavus [21]): 5 mm; zone of inhibition at 750 µg/mL (Pseudomonas aeruginosa [22]): 4 mm; zone of inhibition at 500 µg/mL (Klebsiella pneumoniae [23]): 5 mm; zone of inhibition at 500 µg/mL (Pseudomonas aeruginosa [24]): 4 mm; zone of inhibition at 500 µg/mL (Aspergillus oryzae [25]): 8 mm
